Data as given in US20050209157A1, “Short bioactive peptides and methods for their use” (priority 2001, published 2005).
Values after ≈ are worked out from the molar mass of the structure shown. No end group written: not given here.

Experiments:
[1] = test system: Candida albicans ATCC 10231; test: Antimicrobial assay I, modified protocol (tryptic soy broth), MFC; details: minimum fungicidal concentration, Table 4
Experimental: (§1) The preparation of all media, stock solutions, and dilutions took place in a laminar flow hood to prevent contamination. Bacterial cells were freshly grown on antibiotic medium 2 agar slants (pH 7.0 at 25° C.). Bacteria were suspended and diluted in antibiotic medium 3 to about 10^4 cfu/ml and used as the inoculum. Sample solutions (100 μl/well) were added to plates according to the plate layout. Inoculum (100 μl/well) was added to achieve a final concentration of 5×10^3 cfu/ml. Negative controls received 100 μl saline and 100 μl growth medium. Positive controls received 100 μl saline and 100 μl inoculum. Bacterial plates were incubated at 37° C. for 24 hours.
(§2) However, the data for Table 4 were obtained with a modified protocol wherein the medium was tryptic soy broth, inocolum strength was approximately 10^4 CFU per ml, and values determined were minimum bactericidal concentrations (MBC) or minimum fungicidal concentrations (MFC).
(§3) MBC or MFC values are in μg/mL. E. coli is Escherichia coli ATCC accession number 25922; P. aerug is Pseudomonas aeruginosa ATCC accession number 27853, S. aur. is Stapholococcus aureus ATCC accession number 25923; Candida is Candida albicans ATCC accession number 10231.

[2] = test system: Escherichia coli ATCC 25922; test: Antimicrobial assay I, modified protocol (tryptic soy broth), MBC; details: minimum bactericidal concentration, Table 4
[3] = test system: Stapholococcus aureus ATCC 25923; test: as above; details: minimum bactericidal concentration, Table 4
[4] = test system: Pseudomonas aeruginosa ATCC 27853; test: as above; details: minimum bactericidal concentration, Table 4
Experimental: as §1, §2, §3

CC(C)C[C@H](NC(=O)CNC(=O)[C@H](CCCCN)NC(=O)[C@H](CCCCN)NC(=O)[C@H](C)NC(=O)[C@H](CC(C)C)NC(=O)[C@H](CCCCN)NC(=O)[C@H](C)NC(=O)[C@H](CC(C)C)NC(=O)[C@H](CC(C)C)NC(=O)[C@H](CCCCN)NC(=O)[C@H](C)NC(=O)[C@@H](N)Cc1ccccc1)C(N)=O [compound 152]
MFC Candida A.10231 [1]: 50 µg/mL (≈ 35.7 µM) | MBC E. coli A.25922 [2]: 150 µg/mL (≈ 107 µM) | MBC S. aur A.25923 [3]: >250 µg/mL | MBC P. aerug A.27853 [4]: 150 µg/mL (≈ 107 µM)

FAFAKIIAKIAKKII-NH2 [compound 140]
MFC Candida A.10231 [1]: INACT | MBC E. coli A.25922 [2]: INACT | MBC S. aur A.25923 [3]: INACT | MBC P. aerug A.27853 [4]: INACT

CC(C)C[C@H](NC(=O)[C@H](CC(C)C)NC(=O)[C@H](C)NC(=O)[C@H](CCCCN)NC(=O)[C@H](C)NC(=O)[C@H](CC(C)C)NC(=O)[C@H](CCCCN)NC(=O)[C@H](CCCCN)NC(=O)[C@H](C)NC(=O)[C@@H](N)Cc1ccccc1)C(N)=O [compound 58]
MFC Candida A.10231 [1]: >50 µg/mL | MBC E. coli A.25922 [2]: >50 µg/mL | MBC S. aur A.25923 [3]: >50 µg/mL | MBC P. aerug A.27853 [4]: >50 µg/mL

CC(C)C[C@H](NC(=O)[C@H](C)NC(=O)[C@H](CCCCN)NC(=O)[C@H](C)NC(=O)[C@H](CC(C)C)NC(=O)[C@H](CCCCN)NC(=O)[C@H](C)NC(=O)[C@H](CC(C)C)NC(=O)[C@H](CCCCN)NC(=O)[C@H](C)NC(=O)[C@H](CC(C)C)NC(=O)[C@H](CCCCN)NC(=O)[C@H](CCCCN)NC(=O)[C@H](C)NC(=O)[C@H](CC(C)C)NC(=O)[C@@H](N)CCCCN)C(N)=O [compound 159]
MFC Candida A.10231 [1]: 50 µg/mL (≈ 29.3 µM) | MBC E. coli A.25922 [2]: 10 µg/mL (≈ 5.86 µM) | MBC S. aur A.25923 [3]: >250 µg/mL | MBC P. aerug A.27853 [4]: 10 µg/mL (≈ 5.86 µM)

FGKGIGKVGKKLL-NH2 [compound 132]
MFC Candida A.10231 [1]: INACT | MBC E. coli A.25922 [2]: INACT | MBC S. aur A.25923 [3]: INACT | MBC P. aerug A.27853 [4]: INACT

CC[C@H](C)[C@H](NC(=O)[C@H](CCCCN)NC(=O)[C@H](CCCCN)NC(=O)[C@H](Cc1ccccc1)NC(=O)[C@H](CC(C)C)NC(=O)[C@H](CCCCN)NC(=O)[C@H](Cc1c[nH]c2ccccc12)NC(=O)[C@@H](N)CCCCN)C(=O)NCC(=O)N[C@@H](C)C(=O)N[C@H](C(=O)N[C@@H](CC(C)C)C(=O)N[C@@H](CCCCN)C(=O)N[C@H](C(=O)N[C@@H](CC(C)C)C(N)=O)C(C)C)C(C)C [compound 53]
MFC Candida A.10231 [1]: 30 µg/mL (≈ 16.9 µM) | MBC E. coli A.25922 [2]: 15 µg/mL (≈ 8.47 µM) | MBC S. aur A.25923 [3]: 10 µg/mL (≈ 5.65 µM) | MBC P. aerug A.27853 [4]: 15 µg/mL (≈ 8.47 µM)

CC(C)C[C@H](NC(=O)[C@H](CCCCN)NC(=O)[C@H](CCCCN)NC(=O)[C@H](C)NC(=O)[C@H](CC(C)C)NC(=O)[C@H](CCCCN)NC(=O)[C@H](CCCCN)NC(=O)[C@H](CC(C)C)NC(=O)[C@H](CCCCN)NC(=O)[C@H](CCCCN)NC(=O)[C@H](C)NC(=O)[C@@H](N)Cc1ccccc1)C(N)=O [compound 79]
MFC Candida A.10231 [1]: >50 µg/mL | MBC E. coli A.25922 [2]: >50 µg/mL | MBC S. aur A.25923 [3]: >50 µg/mL | MBC P. aerug A.27853 [4]: >50 µg/mL

CC(C)C[C@H](NC(=O)[C@H](C)NC(=O)[C@H](CC(C)C)NC(=O)[C@H](C)NC(=O)[C@H](CC(C)C)NC(=O)[C@H](CCCCN)NC(=O)[C@H](C)NC(=O)[C@H](CC(C)C)NC(=O)[C@H](CCCCN)NC(=O)[C@H](CCCCN)NC(=O)[C@H](C)NC(=O)[C@H](CC(C)C)NC(=O)[C@H](CCCCN)NC(=O)[C@H](CCCCN)NC(=O)[C@H](CC(C)C)NC(=O)[C@H](CCCCN)NC(=O)[C@H](CCCCN)NC(=O)[C@H](C)NC(=O)[C@H](CC(C)C)NC(=O)[C@H](CCCCN)NC(=O)[C@H](CCCCN)NC(=O)[C@H](C)NC(=O)[C@@H](N)Cc1ccccc1)C(N)=O [compound 11]
MFC Candida A.10231 [1]: >50 µg/mL | MBC E. coli A.25922 [2]: 40 µg/mL (≈ 15.8 µM) | MBC S. aur A.25923 [3]: 25 µg/mL (≈ 9.86 µM) | MBC P. aerug A.27853 [4]: 25 µg/mL (≈ 9.86 µM)

CC(C)C[C@H](NC(=O)[C@H](CC(C)C)NC(=O)[C@H](CCCCN)NC(=O)[C@H](CCCCN)NC(=O)[C@H](C)NC(=O)[C@H](CC(C)C)NC(=O)[C@H](CC(C)C)NC(=O)[C@H](CCCCN)NC(=O)[C@H](C)NC(=O)[C@@H](N)Cc1ccccc1)C(N)=O [compound 57]
MFC Candida A.10231 [1]: >50 µg/mL | MBC E. coli A.25922 [2]: >50 µg/mL | MBC S. aur A.25923 [3]: >50 µg/mL | MBC P. aerug A.27853 [4]: >50 µg/mL

FALKALKK-NH2 [compound 145]
MFC Candida A.10231 [1]: 100 µg/mL | MBC E. coli A.25922 [2]: INACT | MBC S. aur A.25923 [3]: INACT | MBC P. aerug A.27853 [4]: INACT

FAKLLAKFLKKAL-NH2 [compound 113]
MFC Candida A.10231 [1]: 40 µg/mL | MBC E. coli A.25922 [2]: INACT | MBC S. aur A.25923 [3]: INACT | MBC P. aerug A.27853 [4]: INACT

FAKGVGKVGKKAL-NH2 [compound 137]
MFC Candida A.10231 [1]: INACT | MBC E. coli A.25922 [2]: INACT | MBC S. aur A.25923 [3]: INACT | MBC P. aerug A.27853 [4]: INACT

CC[C@H](C)[C@H](NC(=O)[C@H](C)NC(=O)[C@H](CCCNC(=N)N)NC(=O)[C@H](CC(C)C)NC(=O)CNC(=O)[C@@H](NC(=O)[C@H](C)NC(=O)[C@@H](N)Cc1ccccc1)C(C)C)C(=O)N[C@@H](CCCCN)C(=O)N[C@@H](CCCNC(=N)N)C(=O)N[C@@H](C)C(=O)N[C@@H](CC(C)C)C(=O)N[C@@H](CCCCN)C(=O)N[C@@H](CCCCN)C(=O)N[C@@H](CC(C)C)C(=O)N[C@@H](CCCNC(=N)N)C(=O)N[C@@H](CCCNC(=N)N)C(=O)NCC(=O)N[C@H](C(=O)N[C@@H](CCCNC(=N)N)C(=O)N[C@@H](CCCCN)C(=O)N[C@H](C(=O)N[C@@H](C)C(=O)N[C@@H](CCCCN)C(=O)N[C@@H](CC(=O)O)C(=O)N[C@@H](CC(C)C)C(N)=O)C(C)C)C(C)C [compound 157]
MFC Candida A.10231 [1]: >250 µg/mL | MBC E. coli A.25922 [2]: 75 µg/mL (≈ 25.3 µM) | MBC S. aur A.25923 [3]: >250 µg/mL | MBC P. aerug A.27853 [4]: >250 µg/mL

FAKLFAKAFKKAL-NH2 [compound 117]
MFC Candida A.10231 [1]: INACT | MBC E. coli A.25922 [2]: INACT | MBC S. aur A.25923 [3]: INACT | MBC P. aerug A.27853 [4]: INACT

CC(C)C[C@H](NC(=O)[C@H](CCCCN)NC(=O)[C@H](CC(C)C)NC(=O)[C@H](Cc1c[nH]c2ccccc12)NC(=O)[C@H](CCCCN)NC(=O)[C@H](CCCCN)NC(=O)[C@H](C)NC(=O)[C@H](Cc1c[nH]c2ccccc12)NC(=O)[C@H](CCCCN)NC(=O)[C@H](CCCCN)NC(=O)[C@H](Cc1c[nH]c2ccccc12)NC(=O)[C@H](CC(C)C)NC(=O)[C@@H](N)CCCCN)C(=O)N[C@@H](Cc1c[nH]c2ccccc12)C(=O)N[C@@H](CCCCN)C(=O)N[C@@H](C)C(=O)O [compound 164]
MFC Candida A.10231 [1]: 25 µg/mL (≈ 11.7 µM) | MBC E. coli A.25922 [2]: 25 µg/mL (≈ 11.7 µM) | MBC S. aur A.25923 [3]: 25 µg/mL (≈ 11.7 µM) | MBC P. aerug A.27853 [4]: 25 µg/mL (≈ 11.7 µM)

CC(C)C[C@H](NC(=O)[C@H](CC(C)C)NC(=O)[C@H](CCCCN)NC(=O)[C@H](CC(C)C)NC(=O)[C@H](CC(C)C)NC(=O)[C@H](CCCCN)NC(=O)[C@H](CCCCN)NC(=O)[C@H](Cc1ccc(O)cc1)NC(=O)[C@H](CC(C)C)NC(=O)[C@H](CCCCN)NC(=O)[C@H](CC(C)C)NC(=O)[C@H](CC(C)C)NC(=O)[C@H](CC(C)C)NC(=O)[C@H](CCCCN)NC(=O)[C@H](CC(C)C)NC(=O)[C@H](CC(C)C)NC(=O)[C@@H](N)CCCCN)C(=O)O [compound 156]
MFC Candida A.10231 [1]: >250 µg/mL | MBC E. coli A.25922 [2]: 100 µg/mL (≈ 48 µM) | MBC S. aur A.25923 [3]: >250 µg/mL | MBC P. aerug A.27853 [4]: >250 µg/mL

FALALKA-NH2 [compound 141]
MFC Candida A.10231 [1]: INACT | MBC E. coli A.25922 [2]: INACT | MBC S. aur A.25923 [3]: INACT | MBC P. aerug A.27853 [4]: INACT

FAKAIAKIAFGKGIGKVGKKLL-NH2 [compound 134]
MFC Candida A.10231 [1]: INACT | MBC E. coli A.25922 [2]: INACT | MBC S. aur A.25923 [3]: INACT | MBC P. aerug A.27853 [4]: INACT

FAKLLFKALKKAL-NH2 [compound 112]
MFC Candida A.10231 [1]: INACT | MBC E. coli A.25922 [2]: 30 µg/mL | MBC S. aur A.25923 [3]: INACT | MBC P. aerug A.27853 [4]: INACT

FAFGKGIGKIGKKGL-NH2 [compound 138]
MFC Candida A.10231 [1]: INACT | MBC E. coli A.25922 [2]: INACT | MBC S. aur A.25923 [3]: INACT | MBC P. aerug A.27853 [4]: INACT

CC(C)C[C@H](NC(=O)[C@H](C)NC(=O)[C@H](CC(C)C)NC(=O)[C@H](CCCCN)NC(=O)[C@H](C)NC(=O)[C@H](CC(C)C)NC(=O)[C@H](CCCCN)NC(=O)[C@H](CCCCN)NC(=O)[C@H](C)NC(=O)[C@H](CC(C)C)NC(=O)[C@H](CCCCN)NC(=O)[C@H](CCCCN)NC(=O)[C@H](C)NC(=O)[C@@H](N)Cc1ccccc1)C(N)=O [compound 45]
MFC Candida A.10231 [1]: >50 µg/mL | MBC E. coli A.25922 [2]: 30 µg/mL (≈ 19.5 µM) | MBC S. aur A.25923 [3]: 80 µg/mL (≈ 51.9 µM) | MBC P. aerug A.27853 [4]: 40 µg/mL (≈ 25.9 µM)
